Positions count from the first letter of the chain named. Values joined by “and” are separate entries in the source; they are usually repeats but may differ in a detail not shown here. Equal values may be shown once. Read-outs that look alike come from different tables or passages of the source.
How the values were obtained:
wild-type mouse TRPV3 = biological target: T1, wild-type mouse TRPV3 (Mus musculus, UniProt Q8K424); conditions: cited from earlier work; for F340/F380 change normalized to maximal value in the absence of osthole: WT, published before
T1 construct: expressed in transfected cells; host or cells: HEK 293 S GnTI- cells (baculovirus transduction)
T1 sequence (Q8K424 1-791): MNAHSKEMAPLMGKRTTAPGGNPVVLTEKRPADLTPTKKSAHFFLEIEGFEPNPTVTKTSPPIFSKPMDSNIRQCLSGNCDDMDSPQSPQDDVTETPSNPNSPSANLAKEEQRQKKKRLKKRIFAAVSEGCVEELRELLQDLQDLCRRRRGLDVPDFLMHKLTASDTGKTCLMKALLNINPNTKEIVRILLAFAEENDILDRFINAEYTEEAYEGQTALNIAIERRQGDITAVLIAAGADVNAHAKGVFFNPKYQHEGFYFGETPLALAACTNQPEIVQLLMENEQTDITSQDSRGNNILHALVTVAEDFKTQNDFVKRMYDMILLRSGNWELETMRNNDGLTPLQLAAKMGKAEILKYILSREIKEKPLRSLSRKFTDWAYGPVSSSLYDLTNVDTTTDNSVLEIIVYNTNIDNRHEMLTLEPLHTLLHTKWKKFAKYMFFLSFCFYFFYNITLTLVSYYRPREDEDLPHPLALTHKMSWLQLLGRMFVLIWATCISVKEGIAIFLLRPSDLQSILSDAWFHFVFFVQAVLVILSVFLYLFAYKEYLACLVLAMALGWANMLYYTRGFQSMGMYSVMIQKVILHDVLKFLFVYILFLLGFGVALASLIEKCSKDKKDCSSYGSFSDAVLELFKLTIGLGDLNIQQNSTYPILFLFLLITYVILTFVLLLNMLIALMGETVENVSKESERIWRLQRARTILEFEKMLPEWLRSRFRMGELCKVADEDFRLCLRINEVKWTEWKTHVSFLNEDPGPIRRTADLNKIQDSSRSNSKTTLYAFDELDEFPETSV

F666A mutant TRPV3 = biological target: T2, F666A mutant TRPV3 (Mus musculus, UniProt Q8K424, F666A); assay: Fura-2 ratiometric Ca2+ uptake, inhibition of 2-APB-evoked response; assay type: cell-based; conditions: for F340/F380 change normalized to maximal value in the absence of osthole: F666A
T2 construct: expressed in transfected cells; host or cells: HEK 293 S GnTI- cells (baculovirus transduction)
T2 sequence (Q8K424 1-791 F666A): T1 sequence (Q8K424 1-791) with F666A
Description: GFP-free C-terminally strep-tagged wild-type TRPV3, TRPV3-Y564A, TRPV3-Y594A, TRPV3-F633A, TRPV3-I663W, and TRPV3-F666A were expressed in HEK 293 S GnTI^− cells as previously described[41],[42],[53]. In short, 48 h after transduction, 1-ml aliquots of cell suspension were collected by centrifugation at 550 g for 5 min using an Eppendorf 5424 centrifuge. The cells were resuspended in the pre-warmed modified HEPES-buffered saline (HBS) containing 118 mM NaCl, 4.8 mM KCl, 1 mM MgCl2, 5 mM D-glucose, and 10 mM HEPES pH 7.4 and 5 μg/ml Fura-2 AM (Thermo Fisher Scientific) and incubated for 45 min at 37 °C. The Fura-2-loaded cells were then centrifuged for 5 min at 550 g, resuspended in the pre-warmed, modified HBS and incubated again for 30 min at 37 °C in the dark. The cells were subsequently pelleted and washed twice in the modified HBS. The washed cell pellets were kept on ice in the dark before taking an aliquot for fluorescence measurements. […] We used the lower CaCl2 concentration than before[42],[28] (2.5 mM) to minimize non-specific effects, which often appeared as a drift in the Fura-2 signal at high Ca^2+ concentration, presumably due to cell death as a result of calcium overload. Fluorescence measurements were conducted using a QuantaMaster 40 spectrofluorometer (Photon Technology International) at room temperature in a quartz cuvette under constant stirring. After 60 s since the beginning, the recording was paused and 2-APB was added. After the addition of 2-APB, the recording was continued for the additional 140 s. Changes in intracellular Ca^2+ were measured by taking the ratio of fluorescence emitted at 510 nm at the excitation wavelength of 340 nm and 380 nm. […] The data were processed using Origin 9.0 (OriginLab) software.

[1] = biological target: the molecule itself; assay: cryo-EM structure; TRPV3 reconstituted in cNW30 nanodiscs with soybean lipids; 150 mM NaCl, 20 mM Tris pH 8.0, 1 mM βME, 100 μM dyclonine plus 100 μM more before freezing; C4 symmetry, 3.16 Å
[2] = osthole Conc 1, single experiments

Molecule: COc1ccc2ccc(=O)oc2c1CC=C(C)C [osthole]
- F340/F380 change normalized to maximal value in the absence of osthole (wild-type mouse TRPV3; [2]): 0.9502 and 0.9764 and 1.106
- F340/F380 change normalized to maximal value in the absence of osthole (wild-type mouse TRPV3; osthole Conc 2.5, single experiments): 0.949 and 1.067
- F340/F380 change normalized to maximal value in the absence of osthole (wild-type mouse TRPV3; osthole Conc 5, single experiments): 0.9795 and 0.8169 and 0.895
- F340/F380 change normalized to maximal value in the absence of osthole (wild-type mouse TRPV3; osthole Conc 8, single experiments): 0.9193 and 0.8591 and 0.9872
- F340/F380 change normalized to maximal value in the absence of osthole (wild-type mouse TRPV3; osthole Conc 12.5, single experiments): 0.6517 and 0.6914 and 0.735
- F340/F380 change normalized to maximal value in the absence of osthole (wild-type mouse TRPV3; osthole Conc 18, single experiments): 0.5621 and 0.5685 and 0.5403
- F340/F380 change normalized to maximal value in the absence of osthole (wild-type mouse TRPV3; osthole Conc 25, single experiments): 0.4148 and 0.5672 and 0.4994
- F340/F380 change normalized to maximal value in the absence of osthole (wild-type mouse TRPV3; osthole Conc 50, single experiments): 0.161 and 0.164 and 0.15 and 0.2574
- nHill of osthole inhibition curve, wild-type TRPV3 (wild-type mouse TRPV3; n = 4, published before): 1.84 ± 0.14
- IC50 (wild-type mouse TRPV3; n = 4, published before, read-out: IC50, inhibition of wild-type TRPV3 by osthole): 20.5 ± 0.5 µM
- F340/F380 change normalized to maximal value in the absence of osthole (F666A mutant TRPV3; [2]): 1.064 and 1.053 and 0.962
- F340/F380 change normalized to maximal value in the absence of osthole (F666A mutant TRPV3; osthole Conc 3, single experiments): 0.8581 and 0.9473 and 0.9415
- F340/F380 change normalized to maximal value in the absence of osthole (F666A mutant TRPV3; osthole Conc 10, single experiments): 0.7679 and 0.9394 and 0.7809
- F340/F380 change normalized to maximal value in the absence of osthole (F666A mutant TRPV3; osthole Conc 30, single experiments): 0.5836 and 0.4944 and 0.6286
- F340/F380 change normalized to maximal value in the absence of osthole (F666A mutant TRPV3; osthole Conc 100, single experiments): 0.1362 and 0.1904
- IC50 (F666A mutant TRPV3; HEK 293 GnTI- cells, 200 µM 2-APB after pre-incubation with inhibitor, n = 3): 33.1 ± 3.8 µM
- nHill of inhibition curve, F666A (F666A mutant TRPV3; logistic fit, n = 3): 1.37 ± 0.19

B1: Mouse TRPV3 (vanilloid-subfamily member 3 TRP channel) (natural protein)
chain: AHSKEMAPLMGKRTTAPGGNPVVLTEKRPADLTPTKKSAHFFLEIEGFEPNPTVTKTSPPIFSKPMDSNIRQCLSGNCDDMDSPQSPQDDVTETPSNPNSPSANLAKEEQRQKKKRLKKRIFAAVSEGCVEELRELLQDLQDLCRRRRGLDVPDFLMHKLTASDTGKTCLMKALLNINPNTKEIVRILLAFAEENDILDRFINAEYTEEAYEGQTALNIAIERRQGDITAVLIAAGADVNAHAKGVFFNPKYQHEGFYFGETPLALAACTNQPEIVQLLMENEQTDITSQDSRGNNILHALVTVAEDFKTQNDFVKRMYDMILLRSGNWELETMRNNDGLTPLQLAAKMGKAEILKYILSREIKEKPLRSLSRKFTDWAYGPVSSSLYDLTNVDTTTDNSVLEIIVYNTNIDNRHEMLTLEPLHTLLHTKWKKFAKYMFFLSFCFYFFYNITLTLVSYYRPREDEDLPHPLALTHKMSWLQLLGRMFVLIWATCISVKEGIAIFLLRPSDLQSILSDAWFHFVFFVQAVLVILSVFLYLFAYKEYLACLVLAMALGWANMLYYTRGFQSMGMYSVMIQKVILHDVLKFLFVYILFLLGFGVALASLIEKCSKDKKDCSSYGSFSDAVLELFKLTIGLGDLNIQQNSTYPILFLFLLITYVILTFVLLLNMLIALMGETVENVSKESERIWRLQRARTILEFEKMLPEWLRSRFRMGELCKVADEDFRLCLRINEVKWTEWKTHVSFLNEDPGPIRRTADLNKIQDSSRSNSKTTLYAFDELDEFPETSV
notes: TRPV3, mouse; model built for residues 118-756, leaving out 462-470 and 611-621
- stoichiometry N [1]: 4

Source: PMC9120478 (Nature Communications, 2022)
